Measurements from patent US20100048516A1, “PENETRATION ENHANCER FOR FUNGICIDES” (Bayer CropScience AG, priority 2006, published 2010).
Entries after “also recorded” stand apart in the source; their conditions may differ.

Key:
[1] = Penetration test: penetration of radioactively marked active substance through isolated apple leaf cuticles in diffusion cells; conditions: for % Penetration (after hours): acetone/tap water 20/80% by weight, 20-25° C., rel. humidity 56-60%, mean of 4-8 repetitions
Protocol: In this test, the penetration of active substances through enzymatically isolated cuticles of apple tree leaves was measured. The cuticles represent all green plant parts, such as leaf blade, petiole, stalk, trunk, hypocotyl and many fruits.
Leaves which were cut off in the stage of full development of apple trees of the Golden Delicious variety were used. The isolation of the cuticles was effected in a manner such that • first, leaf disks marked on the underside with dye and punched out were filled by means of vacuum infiltration with a pectinase solution (0.2 to 2% strength by weight) buffered to a pH between 3 and 4, • sodium azide was then added and • the leaf disks thus treated were allowed to stand until disintegration of the original leaf structure and detachment of the noncellular cuticle.
Thereafter, only those cuticles of the upper sides of the leaves which were free of stomata and hairs were further used. They were washed several times alternately with water and a buffer solution at pH 7. The cleaned cuticles obtained were finally drawn onto small Teflon plates and smoothed and dried with a gentle air jet.
In the next step, the cuticle membranes thus obtained were placed in stainless steel diffusion cells (=transport chambers) for membrane transport investigations. For this purpose, the cuticles were placed by means of forceps centrally on the silicone grease-coated edges of the diffusion cells and closed with a likewise greased ring. The arrangement was chosen so that the morphological outside of the cuticles faced outward, i.e. toward the air, while the original inside faced the interior of the diffusion cell. The diffusion cells were filled with water or with a mixture of water and solvent.
For determining the penetration, in each case 10 μl of a spray liquor of the composition mentioned in the examples were applied to the outside of a cuticle.
In each case the solvents listed below in the table (tap water or a mixture with 20% by weight of acetone/80% by weight of tap water) were used in the spray liquors.
After the application of the spray liquors, in each case the solvent was allowed to evaporate, and in each case the chambers were then turned around and placed in thermostated trays, air having a defined temperature and atmospheric humidity being blown onto the outside of the cuticle. The incipient penetration therefore took place at a relative humidity of 60% and a set temperature of 20 or 25° C. The active substance penetration was measured with radioactively marked active substance.

[2] = tested on: crop plant; experiment: Crop plant tolerance tests of TBEP versus other alkyl ester additives; assay type: in vivo; conditions: compared with other alkyl ester additives
[3] = after 3 hours, 0.2 g/l active substance without or with 0.5 g/l TBEP, apple leaf cuticles
[4] = after 24 hours, 0.2 g/l active substance without or with 0.5 g/l TBEP, apple leaf cuticles

Row | Structure (SMILES) | % Penetration (after hours) [1, 3] | % Penetration (after hours) [1, 4] | other results
1 | CCOC(=O)C1=NN(c2ccc(Cl)cc2Cl)C(C)(C(=O)OCC)C1 (stereo not drawn) [mefenpyr-diethyl, ethyl 1-(2,4-dichlorophenyl)-5-(ethoxycarbonyl)-5-methyl-2-pyrazoline-3-carboxylate] | 0.4 (3) % | 4.9% | 
2 | CCCCOCCOP(=O)(OCCOCCCC)OCCOCCCC [TBEP, tributoxyethyl phosphate] |  |  | Crop plant tolerance (in words) [2]: more tolerant than other alkyl ester additives; Effect of the penetration enhancer on uptake of active substances (in words) ([1]; summary of tables 1 and 2, apple leaf cuticles): considerable increase in uptake of the active substances; also recorded: advantageously higher increase in uptake of active substances than the penetration enhancers of the prior art
3 | O=C(Nc1ccccc1)Nc1cnns1 [thidiazuron] |  |  | % Penetration (after hours) ([1]; after 6 hours, 0.2 g/l thidiazuron without or with 3 g/l TBEP, apple leaf cuticles): 0.6 (6) %; % Penetration (after hours) ([1]; after 24 hours, 0.2 g/l thidiazuron without or with 3 g/l TBEP, apple leaf cuticles): 0.9%
4 | CCOC(=O)C(C)Oc1ccc(Oc2nc3ccc(Cl)cc3o2)cc1 (stereo not drawn) [fenoxaprop-P-ethyl, ethyl 2-(4-(6-chlorobenzoxazol-2-yloxy)phenoxy)propionate] |  |  | % Penetration (after 24 hours) ([1]; apple tree, 24 h, 0.3 g/l): 0.3%; % Penetration (after 48 hours) ([1]; apple tree, 48 h, 0.3 g/l): 0.9%
5 | CCOC(=O)C1=NOC(c2ccccc2)(c2ccccc2)C1 [isoxadifen-ethyl, ethyl 5,5-diphenyl-2-isoxazolinecarboxylate] | 1.7 (3) % | 17.4% | 
6 | COc1ccccc1C(=O)NS(=O)(=O)c1ccc(C(=O)NC2CC2)cc1 [cyprosulfamide, 4-cyclopropylaminocarbonyl-N-(2-methoxybenzoyl)benzenesulfonamide] | 0.1 (3) % | 0.3% | 
